The source of these data is patent US5599926.

The conditions of this data set: from C=CCOc1ccc(C[C@H](N)C(=O)NCc2cc(CSc3cc(SCc4cc(CNC(=O)[C@@H](N)Cc5ccc(OCC=C)cc5)cc(C(=O)Oc5c(F)c(F)c(F)c(F)c5F)c4)cc(SCc4cc(CNC(=O)[C@@H](N)Cc5ccc(OCC=C)cc5)cc(C(=O)Oc5c(F)c(F)c(F)c(F)c5F)c4)c3)cc(C(=O)Oc3c(F)c(F)c(F)c(F)c3F)c2)cc1; amide bond; N,N-diisopropylethylamine (pentafluorophenyl ester); THF; 2.3 mM; 25.0 °C; 45.0 h.

Consider `C=CCOc1ccc(C[C@@H]2NC(=O)c3cc4cc(c3)CSc3cc5cc(c3)SCc3cc(cc(c3)C(=O)N[C@@H](Cc3ccc(OCC=C)cc3)C(=O)NC4)CNC(=O)[C@H](Cc3ccc(OCC=C)cc3)NC(=O)c3cc(cc(c3)CS5)CNC2=O)cc1`, for which the ring closure, yield of all isomers came out at 65%.
